{"source": "paper PMC8065212", "about": "“The active form of the influenza cap-snatching endonuclease inhibitor baloxavir marboxil is a tight binding inhibitor” (The Journal of Biological Chemistry, 2021)", "key": {"FluB-ht PA I38T [1]": {"molecular_target": "T1, FluB-ht PA I38T (Influenza B virus, UniProt Q5V8Z9, I38T)", "assay_type": "biochemical, Influenza B (B/Memphis/13/03)"}, "FluB-ht PA I38T [2]": {"test_system": "FluB-ht PA I38T", "assay_type": "biochemical, Influenza B (B/Memphis/13/03)"}, "FluB-ht PA I38T [3]": {"molecular_target": "T1, FluB-ht PA I38T", "assay_type": "biochemical, Influenza B (B/Memphis/13/03)", "remark": "listed apart in the source"}, "FluB-ht PA I38T [4]": {"molecular_target": "T1, FluB-ht PA I38T", "assay_type": "biochemical, Influenza B (B/Memphis/13/03)", "remark": "listed apart in the source"}, "influenza B I38 mutants": {"test_system": "influenza B I38 mutants", "details": "cited from earlier work"}, "influenza virus": {"test_system": "influenza virus", "details": "cited from earlier work"}, "influenza A I38 mutants": {"test_system": "influenza A I38 mutants", "details": "cited from earlier work"}}, "note": "Where “and” joins values, the source holds several entries; their conditions need not be identical. Identical values can stand only once. Entries after “also recorded” stand apart in the source; their conditions may differ.", "data": [{"smiles": "O=C1c2c(O)c(=O)ccn2N([C@@H]2c3ccccc3SCc3c2ccc(F)c3F)[C@@H]2COCCN12", "note": "[BXA, baloxavir acid]", "values": [{"measurement": "BXA concentration at which an effect of preincubation is observed", "setting": "FluB-ht PA I38T [1]", "result": 600, "unit": "nM"}, {"measurement": "effect of preincubation length on activity", "setting": "FluB-ht PA I38T [1]", "result": "negligible effects; also recorded: time-independent"}, {"measurement": "decrease in inhibition (difference in IC50), PA I38T versus WT", "setting": "FluB-ht PA I38T [2]", "result": "approximately threefold decrease"}, {"measurement": "increase of Ki^app, PA I38T with respect to WT", "setting": "FluB-ht PA I38T [2]", "result": "~18", "unit": "fold"}, {"measurement": "slope of plot of IC50 versus enzyme concentration", "setting": "FluB-ht PA I38T [3]", "result": "0.58 and ~0.5"}, {"measurement": "inhibition of endonuclease activity by order of addition", "setting": "FluB-ht PA I38T [4]", "result": "no inhibition; also recorded: not observed regardless of the order of addition"}]}, {"smiles": "COC(=O)OCOc1c2n(ccc1=O)N([C@@H]1c3ccccc3SCc3c1ccc(F)c3F)[C@@H]1COCCN1C2=O", "note": "[BXM, Baloxavir marboxil]", "values": [{"measurement": "increase in EC50 values with mutations at position I38", "setting": "influenza B I38 mutants", "result": "up to tenfold"}, {"measurement": "increase in EC50 values of mutant viruses", "setting": "influenza virus", "result": "up to 50 fold"}, {"measurement": "increase in EC50 values with mutations at position I38", "setting": "influenza A I38 mutants", "result": "up to 50 fold"}]}]}
